This is an account of results in patent US20110071178A1, “Methods and Compounds for Modulating Cannabinoid Activity” (Northeastern University, priority 2007, published 2011).

What is called melting point is the temperature of the solid-liquid transition. For orientation: inhibition means how much of the control response was suppressed. Higher therefore signals a response far below the control.

In one series the target is T1, MGL (Rattus norvegicus, UniProt Q8R431).
T1 sequence (Q8R431 1-303): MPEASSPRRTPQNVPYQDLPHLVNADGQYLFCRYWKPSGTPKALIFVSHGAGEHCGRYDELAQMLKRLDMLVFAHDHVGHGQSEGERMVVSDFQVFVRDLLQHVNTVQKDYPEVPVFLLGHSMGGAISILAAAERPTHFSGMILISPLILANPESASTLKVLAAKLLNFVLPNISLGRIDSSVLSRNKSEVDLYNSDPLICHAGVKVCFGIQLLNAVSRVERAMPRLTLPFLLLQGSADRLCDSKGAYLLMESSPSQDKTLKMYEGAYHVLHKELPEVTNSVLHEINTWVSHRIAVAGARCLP
The conditions noted are these: 100 µM.

Protocol for MGL: The percentage of inhibition describes the percentage by which the inhibitor reduces the velocity/rate of 2-AG hydrolysis by MGL. […] The Ki value is the affinity constant and describes the affinity of the inhibitor for the MGL.
These rat brains are homogenized in 5 volumes of ice-cold buffer (0.32 M sucrose, 10 mM Tris base, 5 mM EDTA, pH 7.4) then centrifuged at 17400 g for 30 min. The supernatant was further centrifuged at 124,000 g for 90 min. The supernatant from the last certifugation step (cytosol fraction) is resuspended in TME buffer (25 mM Tris base, 5 mM MgCl2, 1 mM EDTA, pH 7.4) for the MGL preparation. Aliquots (1 ml) from the preparation are flash frozen in liquid nitrogen and stored at −80° C. until used. Protein concentration of the enzyme suspension is determined using the BioRad protein assay kit. […]
Again the reaction mixture is treated in the same manner as described above and the concentrations of 2-AG and AA are calculated using external standards. Percent inhibition is calculated using the following equation: […]
where (AA20−AA0)c is the amount of arachidonic acid formed over 20 min from 2-AG with the inhibitor present and (AA20−AA0)s is the amount of arachidonic acid formed over 20 min from 2-AG when the inhibitor is not present. […] The reaction mixtures are treated as described above and the amount of AA formed was calculated. […]

`O=S(=O)(Cl)CCCCCc1ccc(OCc2ccccc2)cc1` [Compound 12.4, 5-(4-Benzyloxy-phenyl)-pentanesulfonyl chloride] registered a melting point of 58 to 60 °C.

As to `CCOC(=O)NCc1ccc(Br)cc1` [Compound 57.1], on MGL, the inhibition turned out to be 44%.

As for `O=S(=O)(Cl)CCCCCCCc1ccc(OCc2ccccc2)cc1` [Compound 12.1, 7-(4-Benzyloxy-phenyl)-heptanesulfonyl chloride], the melting point is 33 to 35 °C.

For the compound `O=S(=O)(F)CCCCCc1ccc(O)cc1` [Compound 14.4, 5-(4-Hydroxy-phenyl)-pentanesulfonyl fluoride], the melting point lay in the range of 32 to 35 °C.
